Reference: patent publication US20240294517A1, “2-[3-[1 [(QUINAZOLIN-4-YL)AMINO]ETHYL]PYRAZIN-2-YL]THIAZOLE-5-CARBONITRILE DERIVATIVES AND SIMILAR COMPOUNDS AS PESTICIDES” (SYNGENTA CROP PROTECTION AG, priority 2021, published 2024)

Columns and labels:
Type in all cases: in vivo
Chilo suppressalis = assay: Activity against Chilo suppressalis (striped rice stemborer), artificial diet in 24-well plates; details: 144 h, application rate 200 ppm, L2 larvae, 6 days after infestation
Experimental: 24-well microtiter plates with artificial diet were treated with aqueous test solutions prepared from 10′000 ppm DMSO stock solutions by pipetting. After drying, the plates were infested with L2 larvae (6-8 per well). The samples were assessed for mortality, anti-feeding effect, and growth inhibition in comparison to untreated samples 6 days after infestation. Control of Chilo suppressalis by a test sample is given when at least one of the categories mortality, anti-feedant effect, and growth inhibition is higher than the untreated sample.

Plutella xylostella = assay: Activity against Plutella xylostella (diamond back moth), artificial diet; details: 192 h, application rate 200 ppm, eggs, 8 days after infestation, read-out: effect in at least one of the two categories (mortality or growth inhibition)
Experimental: 24-well microtiter plates with artificial diet were treated with aqueous test solutions prepared from 10′000 ppm DMSO stock solutions by pipetting. After drying, Plutella eggs were pipetted through a plastic stencil onto a gel blotting paper and the plate was closed with it. The samples were assessed for mortality and growth inhibition in comparison to untreated samples 8 days after infestation.
(§1) Activity of compound P5 according to the preparatory examples and of compound P.118 from WO 21/083936 against Plutella xylostella ([…]) and Diabrotica balteata (Example B2) is summarized in Table B9.

Diabrotica balteata = assay: Activity against Diabrotica balteata (corn root worm), sprayed maize sprouts; details: 96 h, application rate 200 ppm, L2 larvae, 4 days after infestation, read-out: effect in at least one of the two categories (mortality or growth inhibition)
Experimental: Maize sprouts placed onto an agar layer in 24-well microtiter plates were treated with aqueous test solutions prepared from 10′000 ppm DMSO stock solutions by spraying. After drying, the plates were infested with L2 larvae (6 to 10 per well). The samples were assessed for mortality and growth inhibition in comparison to untreated samples 4 days after infestation.
as §1

Myzus persicae [1] = assay: Activity against Myzus persicae (green peach aphid), feeding/contact activity; details: 144 h, application rate 200 ppm, mixed ages, 6 days after infestation
Experimental: Sunflower leaf discs were placed onto agar in a 24-well microtiter plate and sprayed with aqueous test solutions prepared from 10′000 ppm DMSO stock solutions. After drying, the leaf discs were infested with an aphid population of mixed ages. The samples were assessed for mortality 6 days after infestation.

Spodoptera littoralis = assay: Activity against Spodoptera littoralis (Egyptian cotton leaf worm), sprayed cotton leaf discs; details: foliar, 72 h, application rate 200 ppm, L1 larvae, 3 days after infestation
Experimental: Cotton leaf discs were placed onto agar in 24-well microtiter plates and sprayed with aqueous test solutions prepared from 10′000 ppm DMSO stock solutions. After drying the leaf discs were infested with five L1 larvae. The samples were assessed for mortality, anti-feeding effect, and growth inhibition in comparison to untreated samples 3 days after infestation. Control of Spodoptera littoralis by a test sample is given when at least one of the categories mortality, anti-feedant effect, and growth inhibition is higher than the untreated sample.

Myzus persicae [2] = assay: Activity against Myzus persicae (green peach aphid), intrinsic activity; details: 120 h, test rate 12 ppm, 5 days after infestation
Experimental: Test compounds prepared from 10′000 ppm DMSO stock solutions were applied by pipette into 24-well microtiter plates and mixed with sucrose solution. The plates were closed with a stretched Parafilm. A plastic stencil with 24 holes was placed onto the plate and infested pea seedlings were placed directly on the Parafilm. The infested plate was closed with a gel blotting paper and another plastic stencil and then turned upside down. The samples were assessed for mortality 5 days after infestation.

[3] = system: Frankliniella occidentalis; assay: Activity against Frankliniella occidentalis (western flower thrips), sprayed sunflower leaf discs; details: foliar, 168 h, application rate 200 ppm, mixed ages, 7 days after infestation
Experimental: Sunflower leaf discs were placed on agar in 24-well microtiter plates and sprayed with aqueous test solutions prepared from […] stock solutions. After drying the leaf discs were infested with a Frankliniella population of mixed ages. The samples were assessed for mortality 7 days after infestation.

C[C@H](Nc1ncnc2c(Br)cc(Br)cc12)c1ncnn1-c1ncc(C#N)s1 [P14, 2-[5-[(1S)-1-[(6,8-dibromoquinazolin-4-yl)amino]ethyl]-1,2,4-triazol-1-yl]thiazole-5-carbonitrile]
≥ 80%: percent control (mortality, anti-feedant effect or growth inhibition) at 200 ppm (Chilo suppressalis) | percent effect (mortality or growth inhibition) at 200 ppm (Plutella xylostella) | percent effect (mortality or growth inhibition) at 200 ppm (Diabrotica balteata) | mortality at 200 ppm (Myzus persicae [1]) | percent control (mortality, anti-feedant effect or growth inhibition) at 200 ppm (Spodoptera littoralis)

C[C@H](Nc1ncnc2c(Cl)cc(C(F)(F)F)cc12)c1ncnn1-c1ncc(C#N)s1 [P15, 2-[5-[(1S)-1-[[8-chloro-6-(trifluoromethyl)quinazolin-4-yl]amino]ethyl]-1,2,4-triazol-1-yl]thiazole-5-carbonitrile]
≥ 80%: percent control (mortality, anti-feedant effect or growth inhibition) at 200 ppm (Chilo suppressalis) | percent effect (mortality or growth inhibition) at 200 ppm (Plutella xylostella) | percent effect (mortality or growth inhibition) at 200 ppm (Diabrotica balteata) | mortality at 12 ppm (Myzus persicae [2]) | percent control (mortality, anti-feedant effect or growth inhibition) at 200 ppm (Spodoptera littoralis)

C[C@H](Nc1ncnc2c(Cl)cc(I)cc12)c1ncnn1-c1ncc(C#N)s1 [P20, 2-[5-[(1S)-1-[(8-chloro-6-iodo-quinazolin-4-yl)amino]ethyl]-1,2,4-triazol-1-yl]thiazole-5-carbonitrile]
≥ 80%: mortality at 200 ppm [3] | percent control (mortality, anti-feedant effect or growth inhibition) at 200 ppm (Chilo suppressalis) | percent effect (mortality or growth inhibition) at 200 ppm (Plutella xylostella) | percent effect (mortality or growth inhibition) at 200 ppm (Diabrotica balteata) | percent control (mortality, anti-feedant effect or growth inhibition) at 200 ppm (Spodoptera littoralis)
